We go through one compound from patent US20260232752A1, “COMBINATION THERAPY METHODS, COMPOSITIONS AND KITS” (Accure Therapeutics, S.L., priority 2019, published 2026).

In assay [1] the test system is EAE in C57BL6 mice immunized with MOG35-55. As to the kind of experiment: Example 4: BN201 and STAT3 inhibitor combination, chronic phase of EAE. The class given is in vivo, mouse. The note with it: BN201 50 mg/kg i.p. alone (optimal), from day 34 to day 54. On the procedure: Effect during the chronic phase of the disease in the animal model of Multiple Sclerosis (i.e., EAE in C57BL6 mice immunized with MOG35-55)
Efficacy and safety of combination therapy with optimal doses of BN201 (50 mg/kg) and S31-201 (5 mg/kg) in the progression of chronic EAE in mice.
Starting the chronic phase of the disease (by day 34) mice were administered: • the STAT3 inhibitor S31-201 (group A, 7 mice), • BN201 (group B, 6 mice), or • a combination thereof (group C, 6 mice) once a day for six days per week at optimal dosages (5 mg/kg for S31-201, 50 mg/kg for BN201).
S31-201 and BN201 were administered via i.p. injection in a saline vehicle at a volume of 5 mL/kg. Control mice received vehicle only via both oral and i.p. injection (group D, 6 mice) or nothing at all (group E, 2 mice). Mice were treated from day 34 (chronic EAE stage) until the end of the experiment on day 54.
The combination of BN201 and the STAT3-inhibitor S31-201 was evaluated for its effect during the chronic phase of the disease in the animal model of Multiple Sclerosis (i.e., EAE in C57BL6 mice immunized with MOG35-55). The objective of the study was to evaluate the efficacy and safety of combination therapy with optimal doses of BN201 (50 mg/kg) and 531-201 (5 mg/kg) in the progression of chronic EAE in mice. […]

In assay [2] the test system is human neuroblastoma cell line SH-SY5Y. As to the kind of experiment: Neuroprotection against H2O2 oxidative stress, MTT assay. The class given is cell-based. The following applies: 1 hour preincubation at 0.03-40 μM, then H2O2 15 μM 30 minutes. The method, then: The objective of the study was to test the possible synergistic effect of the BN201-monomethylfumarate salt in a neuroprotective assay. Thus, BN201-monomethylfumarate salt obtained as indicated in example 5, was tested for its ability to protect the human neuroblastoma cell line SH-SY5Y against death induced by oxidative stress (i.e., hydrogen peroxide (H202)) using an MTT (3-(4,5-dimethylthiazol-2-yl)-2,5-diphenyltetrazolium bromide) cell proliferation assay.
SH-SY5Y cells were cultivated in 50% Eagle's minimum essential medium (EMEM), 50% Ham's F12 Nutrient Mixture, 10% fetal bovine serum (FBS), 2 mM L-Glu, and 1% penicillin/streptomycin. All of the cell cultures were maintained in a humidified incubator at 5% CO2 and at 37° C. SH-SY5Y cells were preincubated for 1 hour with BN201 alone, monomethyl fumarate alone, or BN201-monomethylfumarate salt at various concentrations (n=5; concentrations: 0.03 μM, 0.1 μM, 0.3 μM, 0.5 μM, 1 μM, 3 μM, 5 μM, 10 μM, 20 μM, 40 μM) and then H2O2 (15 μM) was added to induce stress. Preincubation with sodium pyruvate (10 mM) was used as a positive control. After 30 minutes of H2O2 incubation, the medium was changed and thiazolyl blue tetrazolium bromide (MTT; Sigma Aldrich; stock concentration 10 mg/ml) was added to each well at the final concentration of 0.5 mg/ml. After 2 hours of MTT incubation the cell medium was removed, and cells were resuspended in pure dimethyl sulfoxide (DMSO). Cell viability was determined by reading the absorbance at 570 nm. Each experiment was performed in quintuplicate.
Background: Tetrazolium dyes change colour on reduction, which living cells bring about.

On to `CC(C)CN(CC(=O)N(CCCN1CCCC1=O)CC(N)=O)C(=O)CNCCc1ccccc1F` [BN201, [N-(2-(2′-Fluorophenyl)ethyl)glycyl]-[N-(2-methylpropyl)glycyl]-N-[3-(2′-oxopyrrolidinyl)-propyl]glycinamide], for which the “course of EAE in chronic phase (clinical score)” value in assay [1] is given as “not efficacious”. Besides, in assay [2], the “cell viability as a percentage compared to the control (protection from death induced by oxidative stress)” value is given as “partially rescued neurons from death induced by oxidative stress”.
